Measured values taken from a compilation of properties of binary mixtures (doi:10.1007/s10953-008-9260-8).

Assay: xn = mol fraction of the nth substance listed
Conditions: 101 kPa

CCCC[n+]1ccn(C)c1.F[B-](F)(F)F + CCCCCC[n+]1ccn(C)c1.F[B-](F)(F)F
viscosity (298.15 K, x1 = 1): 106.4 mPa·s
viscosity (299.15 K, x1 = 1): 101 mPa·s
viscosity (301.15 K, x1 = 1): 91.1 mPa·s
viscosity (302.15 K, x1 = 1): 86.7 mPa·s
viscosity (303.15 K, x1 = 1): 82.6 mPa·s
viscosity (304.15 K, x1 = 1): 78.9 mPa·s
viscosity (307.15 K, x1 = 1): 68.5 mPa·s
viscosity (308.15 K, x1 = 1): 65.4 mPa·s

CC[n+]1ccn(C)c1.F[B-](F)(F)F + CCCCCC[n+]1ccn(C)c1.F[B-](F)(F)F
viscosity (298.15 K, x1 = 1): 35.8 mPa·s
viscosity (301.15 K, x1 = 1): 32.15 mPa·s
viscosity (302.15 K, x1 = 1): 31.06 mPa·s
viscosity (303.15 K, x1 = 1): 30.06 mPa·s
viscosity (304.15 K, x1 = 1): 29.01 mPa·s
viscosity (305.15 K, x1 = 1): 28.13 mPa·s
viscosity (307.15 K, x1 = 1): 26.38 mPa·s

CCCC[n+]1ccn(C)c1.F[B-](F)(F)F + CCCC[n+]1ccn(C)c1.COS(=O)(=O)[O-]
viscosity (298.15 K, x1 = 1): 108.9 mPa·s
viscosity (299.15 K, x1 = 1): 103.5 mPa·s
viscosity (301.15 K, x1 = 1): 93.2 mPa·s
viscosity (303.15 K, x1 = 1): 84.5 mPa·s
viscosity (304.15 K, x1 = 1): 80.5 mPa·s
viscosity (307.15 K, x1 = 1): 69.9 mPa·s
viscosity (308.15 K, x1 = 1): 66.8 mPa·s

CCCC[n+]1ccn(C)c1.F[P-](F)(F)(F)(F)F + CCCC[n+]1ccn(C)c1.F[B-](F)(F)F
viscosity (298.15 K, x1 = 0.0568): 106.8 mPa·s
viscosity (298.15 K, x1 = 0.2095): 128.1 mPa·s
viscosity (298.15 K, x1 = 0.3012): 137.4 mPa·s
viscosity (298.15 K, x1 = 0.3825): 146.7 mPa·s
viscosity (298.15 K, x1 = 0.4647): 157.7 mPa·s
viscosity (298.15 K, x1 = 0.4999): 169.3 mPa·s
viscosity (298.15 K, x1 = 0.5385): 168.5 mPa·s
viscosity (298.15 K, x1 = 0.5974): 182.5 mPa·s
viscosity (298.15 K, x1 = 0.6928): 201.4 mPa·s
viscosity (298.15 K, x1 = 0.945): 249 mPa·s
viscosity (298.15 K, x1 = 1): 279 mPa·s
viscosity (299.15 K, x1 = 0.0568): 101.3 mPa·s
viscosity (299.15 K, x1 = 0.3012): 130.1 mPa·s
viscosity (299.15 K, x1 = 0.3825): 139.9 mPa·s
viscosity (299.15 K, x1 = 0.4647): 145.6 mPa·s
viscosity (299.15 K, x1 = 0.4999): 159.7 mPa·s
viscosity (299.15 K, x1 = 0.5385): 159.6 mPa·s
viscosity (299.15 K, x1 = 0.5974): 172.4 mPa·s
viscosity (299.15 K, x1 = 0.6928): 190.1 mPa·s
viscosity (299.15 K, x1 = 0.833): 214 mPa·s
viscosity (299.15 K, x1 = 0.8877): 224 mPa·s
viscosity (299.15 K, x1 = 0.945): 234 mPa·s
viscosity (301.15 K, x1 = 0.2095): 109.5 mPa·s
viscosity (301.15 K, x1 = 0.3012): 117 mPa·s
viscosity (301.15 K, x1 = 0.3825): 125.6 mPa·s
viscosity (301.15 K, x1 = 0.4647): 131.8 mPa·s
viscosity (301.15 K, x1 = 0.5385): 142.9 mPa·s
viscosity (301.15 K, x1 = 0.5974): 156.7 mPa·s
viscosity (301.15 K, x1 = 0.6928): 169.9 mPa·s
viscosity (301.15 K, x1 = 0.833): 190.2 mPa·s
viscosity (301.15 K, x1 = 0.8877): 199 mPa·s
viscosity (301.15 K, x1 = 0.945): 208 mPa·s
viscosity (302.15 K, x1 = 0.1034): 94.4 mPa·s
viscosity (302.15 K, x1 = 0.2095): 103.9 mPa·s
viscosity (302.15 K, x1 = 0.3012): 111.1 mPa·s
viscosity (302.15 K, x1 = 0.4999): 135.8 mPa·s
viscosity (302.15 K, x1 = 0.5385): 134.8 mPa·s
viscosity (302.15 K, x1 = 0.5974): 145.4 mPa·s
viscosity (302.15 K, x1 = 0.6928): 160.9 mPa·s
viscosity (302.15 K, x1 = 0.833): 179.5 mPa·s
viscosity (302.15 K, x1 = 0.8877): 187.7 mPa·s
viscosity (302.15 K, x1 = 0.945): 196.2 mPa·s
viscosity (302.15 K, x1 = 1): 218 mPa·s
viscosity (303.15 K, x1 = 0.1034): 89.7 mPa·s
viscosity (303.15 K, x1 = 0.2095): 98.8 mPa·s
viscosity (303.15 K, x1 = 0.3012): 105.4 mPa·s
viscosity (303.15 K, x1 = 0.3825): 113 mPa·s
viscosity (303.15 K, x1 = 0.4647): 118.1 mPa·s
viscosity (303.15 K, x1 = 0.4999): 128.2 mPa·s
viscosity (303.15 K, x1 = 0.5974): 137.6 mPa·s
viscosity (303.15 K, x1 = 0.6928): 155.3 mPa·s
viscosity (303.15 K, x1 = 0.833): 169.7 mPa·s
viscosity (303.15 K, x1 = 0.8877): 177.3 mPa·s
viscosity (303.15 K, x1 = 0.945): 185.4 mPa·s
viscosity (303.15 K, x1 = 1): 206 mPa·s
viscosity (304.15 K, x1 = 0.0568): 79 mPa·s
viscosity (304.15 K, x1 = 0.1034): 85.5 mPa·s
viscosity (304.15 K, x1 = 0.2095): 94.2 mPa·s
viscosity (304.15 K, x1 = 0.3012): 100.2 mPa·s
viscosity (304.15 K, x1 = 0.3825): 107.1 mPa·s
viscosity (304.15 K, x1 = 0.4647): 111.8 mPa·s
viscosity (304.15 K, x1 = 0.5385): 121.6 mPa·s
viscosity (304.15 K, x1 = 0.5974): 130.5 mPa·s
viscosity (304.15 K, x1 = 0.6928): 144.1 mPa·s
viscosity (304.15 K, x1 = 0.833): 160.5 mPa·s
viscosity (304.15 K, x1 = 0.8877): 167.5 mPa·s
viscosity (304.15 K, x1 = 0.945): 175.3 mPa·s
viscosity (304.15 K, x1 = 1): 194.8 mPa·s
viscosity (305.15 K, x1 = 0.0568): 75.3 mPa·s
viscosity (305.15 K, x1 = 0.1034): 81.4 mPa·s
viscosity (305.15 K, x1 = 0.2095): 89.5 mPa·s
viscosity (305.15 K, x1 = 0.3012): 95.3 mPa·s
viscosity (305.15 K, x1 = 0.3825): 102.1 mPa·s
viscosity (305.15 K, x1 = 0.4647): 106.9 mPa·s
viscosity (305.15 K, x1 = 0.5385): 114.9 mPa·s
viscosity (305.15 K, x1 = 0.5974): 123.9 mPa·s
viscosity (305.15 K, x1 = 0.833): 154.5 mPa·s
viscosity (305.15 K, x1 = 0.8877): 159 mPa·s
viscosity (305.15 K, x1 = 1): 183.8 mPa·s
viscosity (307.15 K, x1 = 0.0568): 68.5 mPa·s
viscosity (307.15 K, x1 = 0.1034): 74.3 mPa·s
viscosity (307.15 K, x1 = 0.2095): 81.3 mPa·s
viscosity (307.15 K, x1 = 0.3012): 86.4 mPa·s
viscosity (307.15 K, x1 = 0.4647): 96.4 mPa·s
viscosity (307.15 K, x1 = 0.4999): 103.9 mPa·s
viscosity (307.15 K, x1 = 0.5385): 104.1 mPa·s
viscosity (307.15 K, x1 = 0.5974): 111.8 mPa·s
viscosity (307.15 K, x1 = 0.6928): 123.3 mPa·s
viscosity (307.15 K, x1 = 0.8877): 142.2 mPa·s
viscosity (307.15 K, x1 = 1): 164.5 mPa·s
viscosity (308.15 K, x1 = 0.0568): 65.39 mPa·s
viscosity (308.15 K, x1 = 0.1034): 70.9 mPa·s
viscosity (308.15 K, x1 = 0.3012): 82.4 mPa·s
viscosity (308.15 K, x1 = 0.4647): 91.9 mPa·s
viscosity (308.15 K, x1 = 0.4999): 98.4 mPa·s
viscosity (308.15 K, x1 = 0.5974): 106 mPa·s
viscosity (308.15 K, x1 = 0.6928): 116.9 mPa·s
viscosity (308.15 K, x1 = 0.833): 129.2 mPa·s
viscosity (308.15 K, x1 = 0.8877): 134.8 mPa·s
viscosity (308.15 K, x1 = 0.945): 142.5 mPa·s
